Reference: patent US12077503B2, “Substituted cyclic amides and their use as herbicides” (FMC CORPORATION, priority 2015, dated 2024)

What was measured:
Format in all cases: in vivo
Kochia (Kochia scoparia) [1] = test: Test A preemergence; conditions: Bassia scoparia, pre-emergence, 240 h, preemergence, 0 to 100 scale where 0 is no effect and 100 is complete control, read-out: Kochia plant response rating
Summary of the method: (§1)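 In a loam soil and sand blend, planted seeds got a preemergence directed soil spray, and young plants at the one- to two-leaf stage, 2–10 cm high, got a postemergence application; ~10 d greenhouse hold; injury rated visually, 0 = none, 100 = complete control.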

[2] = system: barnyardgrass (Echinochloa crus-galli); test: Test A preemergence; conditions: Echinochloa crus-galli, pre-emergence, 240 h, preemergence, 0 to 100 scale where 0 is no effect and 100 is complete control, read-out: Barnyardgrass plant response rating
Summary of the method: as §1

[3] = system: giant foxtail (Setaria faberii); test: Test A preemergence; conditions: Setaria faberi, pre-emergence, 240 h, preemergence, 0 to 100 scale where 0 is no effect and 100 is complete control, read-out: Foxtail, Giant plant response rating
Summary of the method: as §1

[4] = system: pigweed (Amaranthus retroflexus); test: Test A preemergence; conditions: Amaranthus retroflexus, pre-emergence, 240 h, preemergence, 0 to 100 scale where 0 is no effect and 100 is complete control, read-out: Pigweed plant response rating
[5] = system: ragweed (common ragweed, Ambrosia elatior); test: Test A preemergence; conditions: Ambrosia artemisiifolia, pre-emergence, 240 h, preemergence, 0 to 100 scale where 0 is no effect and 100 is complete control, read-out: Ragweed plant response rating
Summary of the method: as §1

[6] = system: ryegrass, Italian (Italian ryegrass, Lolium multiflorum); test: Test A preemergence; conditions: Lolium multiflorum, pre-emergence, 240 h, preemergence, 0 to 100 scale where 0 is no effect and 100 is complete control, read-out: Ryegrass, Italian plant response rating
Summary of the method: as §1

[7] = system: Galium (catchweed bedstraw, Galium aparine); test: Test A postemergence; conditions: Galium, post-emergence, 240 h, Postemergence
Summary of the method: as §1

Kochia (Kochia scoparia) [8] = test: Test A postemergence; conditions: Bassia scoparia, post-emergence, 240 h, Postemergence
Summary of the method: as §1

[9] = system: barnyardgrass (Echinochloa crus-galli); test: Test A postemergence; conditions: Echinochloa crus-galli, post-emergence, 240 h, Postemergence
Summary of the method: as §1

[10] = system: blackgrass (Alopecurus myosuroides); test: Test A postemergence; conditions: Alopecurus myosuroides, post-emergence, 240 h, Postemergence
Summary of the method: as §1

corn (Zea mays) = test: Test A postemergence; conditions: Zea mays, post-emergence, 240 h, Postemergence
Summary of the method: as §1

[11] = system: giant foxtail (Setaria faberii); test: Test A postemergence; conditions: Setaria faberi, post-emergence, 240 h, Postemergence
Summary of the method: as §1

[12] = system: pigweed (Amaranthus retroflexus); test: Test A postemergence; conditions: Amaranthus retroflexus, post-emergence, 240 h, Postemergence
Summary of the method: as §1

[13] = system: ragweed (common ragweed, Ambrosia elatior); test: Test A postemergence; conditions: Ambrosia artemisiifolia, post-emergence, 240 h, Postemergence
Summary of the method: as §1

[14] = system: ryegrass, Italian (Italian ryegrass, Lolium multiflorum); test: Test A postemergence; conditions: Lolium multiflorum, post-emergence, 240 h, Postemergence
Summary of the method: as §1

[15] = system: wheat (Triticum aestivum); test: Test A postemergence; conditions: Triticum aestivum, post-emergence, 240 h, Postemergence
Summary of the method: as §1

[16] = 125 g ai/ha, visual injury rating, approximately 10 d

Compound: COc1cc([C@H]2CN(C)C(=O)[C@@H]2C(=O)Nc2ccccc2S(C)(=O)=O)ccc1F [Compound 1302]
- pest or weed control at 125 g/ha (Kochia (Kochia scoparia) [1]; [16]): 0%
- pest or weed control at 500 g/ha (Kochia (Kochia scoparia) [1]; 500 g ai/ha): 60%
- pest or weed control at 125 g/ha [2, 16]: 60%
- pest or weed control at 500 g/ha ([2]; 500 g ai/ha): 90%
- pest or weed control at 125 g/ha [3, 16]: 90%
- pest or weed control at 500 g/ha ([3]; 500 g ai/ha): 90%
- pest or weed control at 125 g/ha [4, 16]: 0%
- pest or weed control at 500 g/ha ([4]; 500 g ai/ha): 30%
- pest or weed control at 125 g/ha [5, 16]: 0%
- pest or weed control at 500 g/ha ([5]; 500 g ai/ha): 50%
- pest or weed control at 125 g/ha [6, 16]: 0%
- pest or weed control at 500 g/ha ([6]; 500 g ai/ha): 0%
- pest or weed control at 125 g/ha ([7]; 125 g ai/ha, visual rating about 10 d after treatment, read-out: Galium plant response rating (0 to 100 scale)): 0%
- pest or weed control at 500 g/ha ([7]; 500 g ai/ha, visual injury, 0 to 100 scale (0 no effect, 100 complete control), approx. 10 d, read-out: Plant response rating, Galium): 30%
- pest or weed control at 125 g/ha (Kochia (Kochia scoparia) [8]; 125 g ai/ha, visual rating about 10 d after treatment, read-out: Kochia plant response rating (0 to 100 scale)): 0%
- pest or weed control at 500 g/ha (Kochia (Kochia scoparia) [8]; 500 g ai/ha, visual injury, 0 to 100 scale (0 no effect, 100 complete control), approx. 10 d, read-out: Plant response rating, Kochia): 20%
- pest or weed control at 125 g/ha ([9]; 125 g ai/ha, visual rating about 10 d after treatment, read-out: Barnyardgrass plant response rating (0 to 100 scale, 0 no effect, 100 complete control)): 60%
- pest or weed control at 500 g/ha ([9]; 500 g ai/ha, visual injury, 0 to 100 scale (0 no effect, 100 complete control), approx. 10 d, read-out: Plant response rating, Barnyardgrass): 90%
- pest or weed control at 125 g/ha ([10]; 125 g ai/ha, visual rating about 10 d after treatment, read-out: Blackgrass plant response rating (0 to 100 scale)): 0%
- pest or weed control at 500 g/ha ([10]; 500 g ai/ha, visual injury, 0 to 100 scale (0 no effect, 100 complete control), approx. 10 d, read-out: Plant response rating, Blackgrass): 20%
- plant injury at 125 g/ha (corn (Zea mays); 125 g ai/ha, visual rating about 10 d after treatment, read-out: Corn plant response rating (0 to 100 scale)): 0%
- Corn plant response rating (crop injury, 0 = no effect, 100 = complete kill) at 500 g/ha (corn (Zea mays); 500 g ai/ha, visual injury, 0 to 100 scale (0 no effect, 100 complete control), approx. 10 d): 0%
- pest or weed control at 125 g/ha ([11]; 125 g ai/ha, visual rating about 10 d after treatment, read-out: Foxtail, Giant plant response rating (0 to 100 scale)): 30%
- pest or weed control at 500 g/ha ([11]; 500 g ai/ha, visual injury, 0 to 100 scale (0 no effect, 100 complete control), approx. 10 d, read-out: Plant response rating, Foxtail, Giant): 80%
- pest or weed control at 125 g/ha ([12]; 125 g ai/ha, visual rating about 10 d after treatment, read-out: Pigweed plant response rating (0 to 100 scale)): 0%
- pest or weed control at 500 g/ha ([12]; 500 g ai/ha, visual injury, 0 to 100 scale (0 no effect, 100 complete control), approx. 10 d, read-out: Plant response rating, Pigweed): 0%
- pest or weed control at 125 g/ha ([13]; 125 g ai/ha, visual rating about 10 d after treatment, read-out: Ragweed plant response rating (0 to 100 scale)): 0%
- pest or weed control at 500 g/ha ([13]; 500 g ai/ha, visual injury, 0 to 100 scale (0 no effect, 100 complete control), approx. 10 d, read-out: Plant response rating, Ragweed): 0%
- pest or weed control at 125 g/ha ([14]; 125 g ai/ha, visual rating about 10 d after treatment, read-out: Ryegrass, Italian plant response rating (0 to 100 scale)): 0%
- pest or weed control at 500 g/ha ([14]; 500 g ai/ha, visual injury, 0 to 100 scale (0 no effect, 100 complete control), approx. 10 d, read-out: Plant response rating, Ryegrass, Italian): 20%
- plant injury at 125 g/ha ([15]; 125 g ai/ha, visual rating about 10 d after treatment, read-out: Wheat plant response rating (0 to 100 scale)): 0%
- plant injury at 500 g/ha ([15]; 500 g ai/ha, visual injury, 0 to 100 scale (0 no effect, 100 complete control), approx. 10 d, read-out: Plant response rating, Wheat): 0%
